Assay results reported in patent publication US11166954B2, “Dihydropyrimidine compound and preparation method and use thereof” (SICHUAN KELUN-BIOTECH BIOPHARMACEUTICAL CO., LTD., priority 2016, dated 2021).
Read-outs that look alike come from different tables or passages of the source.

How the values were obtained:
[1] = target: T1, hERG potassium ion channel (Homo sapiens, UniProt Q12809); experiment: Predictor hERG Fluorescence Polarization Assay; assay type: binding; details: for IC50: hERG fluorescence polarization
T1 construct: purchased
T1 sequence (Q12809 whole entry): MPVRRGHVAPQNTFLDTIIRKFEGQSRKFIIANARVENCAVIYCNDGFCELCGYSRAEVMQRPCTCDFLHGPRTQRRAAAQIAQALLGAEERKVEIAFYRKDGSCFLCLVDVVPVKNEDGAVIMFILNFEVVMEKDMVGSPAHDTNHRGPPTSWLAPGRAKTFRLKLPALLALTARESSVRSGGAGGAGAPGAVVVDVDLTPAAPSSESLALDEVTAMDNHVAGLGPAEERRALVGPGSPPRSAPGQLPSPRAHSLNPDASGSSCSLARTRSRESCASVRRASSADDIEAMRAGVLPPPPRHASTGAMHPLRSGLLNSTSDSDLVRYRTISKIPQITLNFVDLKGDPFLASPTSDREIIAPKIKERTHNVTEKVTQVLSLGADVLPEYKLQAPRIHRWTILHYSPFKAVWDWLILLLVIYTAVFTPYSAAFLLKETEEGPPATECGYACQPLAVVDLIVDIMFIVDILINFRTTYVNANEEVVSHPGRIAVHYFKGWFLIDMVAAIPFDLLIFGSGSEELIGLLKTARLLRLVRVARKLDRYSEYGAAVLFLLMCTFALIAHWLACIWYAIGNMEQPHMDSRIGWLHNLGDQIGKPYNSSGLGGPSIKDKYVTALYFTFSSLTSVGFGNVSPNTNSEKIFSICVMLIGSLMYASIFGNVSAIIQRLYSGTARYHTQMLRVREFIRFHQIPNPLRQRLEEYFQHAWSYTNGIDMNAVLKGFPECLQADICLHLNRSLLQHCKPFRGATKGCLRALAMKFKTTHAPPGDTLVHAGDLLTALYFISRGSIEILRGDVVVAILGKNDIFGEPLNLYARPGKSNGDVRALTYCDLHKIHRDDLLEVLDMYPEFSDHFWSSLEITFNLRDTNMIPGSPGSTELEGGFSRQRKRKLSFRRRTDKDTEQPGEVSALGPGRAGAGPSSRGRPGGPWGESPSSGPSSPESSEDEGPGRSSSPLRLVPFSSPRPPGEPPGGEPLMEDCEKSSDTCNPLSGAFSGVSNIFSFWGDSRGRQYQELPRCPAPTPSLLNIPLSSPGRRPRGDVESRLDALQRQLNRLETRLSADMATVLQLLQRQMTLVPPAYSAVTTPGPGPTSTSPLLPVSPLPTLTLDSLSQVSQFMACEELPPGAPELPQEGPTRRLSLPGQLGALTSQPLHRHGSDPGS
Description: In cardiac muscle cells, hERG (human Ether-a-go-go Related Gene) coded potassium channel mediates delayed rectifier potassium currents (IKr). IKr inhibition is the most important mechanism of QT interval prolongation caused by a drug.
Employing the Predictor™ hERG Fluorescence Polarization Assay, the effect of the compounds on a hERG potassium ion channel was detected.

[2] = tested on: hepatitis type B virus (HBV); experiment: Inhibition of HBV DNA replication in HepG2.2.15 cells; assay type: cell-based; details: HepG2.2.15, HBV DNA replication
Method: The inhibitory effect of the compounds of the present invention on hepatitis type B virus (HBV) was tested. Cytotoxicity and effects on nucleic acid (DNA) replication level of the virus (HBV) of the compounds of the present invention were tested at a virus-cell level.
HepG2.2.15 cells in the logarithmic growth phase were plated in a 96-well plate at a cell concentration of 40 cells per μL. The cells were incubated in a 5% CO2 incubator at 37° C. for 3 days; and the culture medium was replaced with a new one ([…]) before adding compounds. The concentration of the stock solution of each Example compound is 200 μM.

[3] = Cytotoxicity detection (CellTiter-Glo); assay type: cell-based; details: human, HepG2.2.15 cells, highest concentration 150 μM
Method: The test compounds were diluted to 30 mM with DMSO, with 30 mM as the highest concentration, the compounds were subjected to three-fold serial dilution to various concentrations. 0.2 μL of the compounds at various concentrations were added to a 384-well plate, HepG2.2.15 cells having a concentration of 2000 cells per 50 μL were added to each well, and the highest concentration of the test compounds was 150 μM. 1 μL of DMSO was added to corresponding wells for control. The plate was incubated in a 5% CO2 incubator at 37° C. for 4 days; and 50 μL of CellTiter-Glo was added to each well after 4 days. The plate was read for detection, and a half cytotoxic concentration (CC50) was calculated.

[4] = In vivo pharmacokinetics (PK) in rats; details: male, SD, rat; for Kp: liver/plasma, 2 mg/kg
Method: The test compounds were administrated to male SD rats by intravenous (iv) and by gavage (po), respectively, the doses of the iv and po administration were respectively 1 mg/kg and 2 mg/kg, the solvent system for iv administration was 5% DMSO:5% solutol:90% physiological saline, and the solvent system for po administration was 0.5% MC. Blood was collected at multiple time points after iv administration and po administration for the PK study. Plasma samples and liver tissue samples were subjected to protein precipitation, followed by LC-MS/MS analysis. The mass spectrometer was API 5500, and the liquid chromatograph is a Waters ACQUITY I CLASS system; the chromatographic column was an Agela ASB C18 column (2.1 mm×50 mm, 1.9 μm); mobile phase A was water+0.1% formic acid, and phase B was acetonitrile; the flow rate was 0.4 mL/min, and the column temperature was 40° C. The ion source was an ESI source in a positive ion mode, and the scanning manner is multiple reaction monitoring (MRM).

| Structure (SMILES) | IC50 [1] [µM] | EC50 [2] [µM] | CC50 at 4 days [3] [µM] | also measured |
| --- | --- | --- | --- | --- |
| CCOC(=O)C1=C(CN2CCC(O)C(F)(F)C2)NC(c2nccs2)=N[C@H]1c1ccc(F)cc1Cl (single isomer, unassigned) [Isomer B of Example 4] | > 10 | 0.0347 | 51.3 | – |
| CCOC(=O)C1=C(CN2CC(F)(F)C2)NC(c2nccs2)=N[C@H]1c1ccc(F)cc1Cl [10-7 of Example 6, (R)-ethyl 4-(2-chloro-4-fluorophenyl)-6-((3,3-difluoroazetidin-1-yl)methyl)-2-(thiazol-2-yl)-1,4-dihydropyrimidine-5-carboxylate] | – | 0.102 | 130 | – |
| CCOC(=O)C1=C(CN2C[C@@H](O)[C@H](F)C2)NC(c2nccs2)=N[C@H]1c1ccc(F)cc1Cl [10-34 of Example 9, (R)-ethyl 4-(2-chloro-4-fluorophenyl)-6-(((3R,4R)-3-fluoro-4-hydroxypyrrolidin-1-yl)methyl)-2-(thiazol-2-yl)-1,4-dihydropyrimidine-5-carboxylate] | – | 0.0132 | 79.6 | – |
| CCOC(=O)C1=C(CN2C[C@@H](F)[C@H](OCC(=O)O)C2)NC(c2nccs2)=N[C@H]1c1ccc(F)cc1Cl [10-36 of Example 10, 2-(((3R,4R)-1-(((R)-6-(2-chloro-4-fluorophenyl)-5-(ethoxycarbonyl)-2-(thiazol-2-yl)-3,6-dihydropyrimidin-4-yl)methyl)-4-fluoropyrrolidin-3-yl)oxy)acetic acid] | > 10 | 0.0981 | > 150 | – |
| CCOC(=O)C1=C(CN2CC(O)C(F)(F)C2)NC(c2nccs2)=N[C@H]1c1ccc(F)cc1Cl (stereo partly drawn) [10-40 of Example 11, (4R)-ethyl 4-(2-chloro-4-fluorophenyl)-6-((3,3-difluoro-4-hydroxypyrrolidin-1-yl)methyl)-2-(thiazol-2-yl)-1,4-dihydropyrimidine-5-carboxylate] | > 10 | 0.0062 | 73.5 | – |
| CCOC(=O)C1=C(CN2CC(OCC(=O)O)C(F)(F)C2)NC(c2nccs2)=N[C@H]1c1ccc(F)cc1Cl (stereo partly drawn) [10-42 of Example 12, 2-((1-(((R)-6-(2-chloro-4-fluorophenyl)-5-(ethoxycarbonyl)-2-(thiazol-2-yl)-3,6-dihydropyrimidin-4-yl)methyl)-4,4-difluoropyrrolidin-3-yl)oxy)acetic acid] | > 10 | 0.165 | > 150 | – |
| CCOC(=O)C1=C(CN2CCC(O)C(F)(F)C2)NC(c2nccs2)=NC1c1ccc(F)cc1Cl (centres unmarked) [10-88 of Example 1, ethyl 4-(2-chloro-4-fluorophenyl)-6-((3,3-difluoro-4-hydroxypiperidin-1-yl)methyl)-2-(thiazol-2-yl)-1,4-dihydropyrimidine-5-carboxylate] | > 10 | 0.0247 | 61.1 | – |
| CCOC(=O)C1=C(CN2CCC(O)C(F)(F)C2)NC(c2nccs2)=NC1c1ccc(F)cc1Br (centres unmarked) [10-93 of Example 2, ethyl 4-(2-bromo-4-fluorophenyl)-6-((3,3-difluoro-4-hydroxypiperidin-1-yl)methyl)-2-(thiazol-2-yl)-1,4-dihydropyrimidine-5-carboxylate] | > 10 | – | – | – |
| CCOC(=O)C1=C(CN2CCC(OCC(=O)O)C(F)(F)C2)NC(c2nccs2)=NC1c1ccc(F)cc1Cl (centres unmarked) [10-95 of Example 5, 2-((1-((6-(2-chloro-4-fluorophenyl)-5-(ethoxycarbonyl)-2-(thiazol-2-yl)-3,6-dihydropyrimidin-4-yl)methyl)-3,3-difluoropiperidin-4-yl)oxy)acetic acid] | > 10 | 0.314 | 131 | – |
| CCOC(=O)C1=C(CN2CC(COCC(=O)O)CC(F)(F)C2)NC(c2nccs2)=N[C@H]1c1ccc(F)cc1Cl (stereo partly drawn) [10-136 of Example 16, 2-((1-(((R)-6-(2-chloro-4-fluorophenyl)-5-(ethoxycarbonyl)-2-(thiazol-2-yl)-3,6-dihydropyrimidin-4-yl)methyl)-5,5-difluoropiperidin-3-yl)methoxy)acetic Acid] | – | 0.11 | 122 | – |
| CCOC(=O)C1=C(CN2CCOCC2COCC(=O)O)NC(c2nccs2)=N[C@H]1c1ccc(F)cc1Cl (stereo partly drawn) [10-162 of Example 15, 2-((4-(((R)-6-(2-chloro-4-fluorophenyl)-5-(ethoxycarbonyl)-2-(thiazol-2-yl)-3,6-dihydropyrimidin-4-yl)methyl)morpholin-3-yl)methoxy)acetic Acid] | – | 0.213 | > 150 | – |
| CCOC(=O)C1=C(CN2CCOC(/C=C/C(=O)O)C2)NC(c2nccs2)=N[C@H]1c1ccc(F)cc1Cl (stereo partly drawn) [10-180 of Example 14, (E)-3-(4-(((R)-6-(2-chloro-4-fluorophenyl)-5-(ethoxycarbonyl)-2-(thiazol-2-yl)-3,6-dihydropyrimidin-4-yl)methyl)morpholin-2-yl)acrylic Acid] | – | 0.0235 | > 150 | – |
| CCOC(=O)C1=C(CN2CCOCC2/C=C/C(=O)O)NC(c2nccs2)=N[C@H]1c1ccc(F)cc1Cl (stereo partly drawn) [10-182 of Example 13, (E)-3-(4-(((R)-6-(2-chloro-4-fluorophenyl)-5-(ethoxycarbonyl)-2-(thiazol-2-yl)-3,6-dihydropyrimidin-4-yl)methyl)morpholin-3-yl)acrylic Acid] | – | 0.0618 | > 150 | – |
| COC(=O)C1=C(CN2CCO[C@H](/C=C/C(=O)O)C2)NC(c2nccs2)=N[C@H]1c1ccc(F)cc1Br [10-229 of Example 28, (E)-3-((R)-4-(((R)-6-(2-bromo-4-fluorophenyl)-5-(methoxycarbonyl)-2-(thiazol-2-yl)-3,6-dihydropyrimidin-4-yl)methyl)morpholin-2-yl)acrylic Acid] | – | 0.0083 | > 150 | – |
| COC(=O)C1=C(CN2CCO[C@H](/C=C/C(=O)O)C2)NC(c2nccs2)=N[C@H]1c1ccc(F)c(F)c1Cl [10-237 of Example 30, (E)-3-((R)-4-(((R)-6-(2-chloro-3,4-difluorophenyl)-5-(methoxycarbonyl)-2-(thiazol-2-yl)-3,6-dihydropyrimidin-4-yl)methyl)morpholin-2-yl)acrylic Acid] | – | 0.0109 | > 150 | – |
| COC(=O)C1=C(CN2CCO[C@H](/C=C/C(=O)O)C2)NC(c2nccs2)=N[C@H]1c1ccc(F)c(F)c1Br [10-238 of Example 31, (E)-3-((R)-4-(((R)-6-(2-bromo-3,4-difluorophenyl)-5-(methoxycarbonyl)-2-(thiazol-2-yl)-3,6-dihydropyrimidin-4-yl)methyl)morpholin-2-yl)acrylic Acid] | – | 0.0102 | > 150 | – |
| COC(=O)C1=C(CN2CCO[C@H](/C=C/C(=O)O)C2)NC(c2nccs2)=N[C@H]1c1ccc(F)c(F)c1C [10-239 of Example 32, (E)-3-((R)-4-(((S)-6-(3,4-difluoro-2-methylphenyl)-5-(methoxycarbonyl)-2-(thiazol-2-yl)-3,6-dihydropyrimidin-4-yl)methyl)morpholin-2-yl)acrylic Acid] | – | 0.0289 | > 150 | – |
| COC(=O)C1=C(CN2CCO[C@H](/C=C/C(=O)O)C2)NC(c2nccs2)=N[C@H]1c1cccc(F)c1Cl [10-240 of Example 33, (E)-3-((R)-4-(((R)-6-(2-chloro-3-fluorophenyl)-5-(methoxycarbonyl)-2-(thiazol-2-yl)-3,6-dihydropyrimidin-4-yl)methyl)morpholin-2-yl)acrylic Acid] | – | 0.0211 | > 150 | – |
| CCOC(=O)C1=C(CN2CCO[C@H](CCC(=O)O)C2)NC(c2nccs2)=N[C@H]1c1ccc(F)cc1Cl [Control compound 2, reference compound] | 1 to 10 | 0.089 | – | inhibitory effect on the hERG potassium ion channel (in words) ([1]; criterion: IC50 greater than 10 μM = no inhibitory effect): significant inhibitory effect; bioavailability ([4]; plasma, po, by gavage, 2.00 mg/kg, read-out: bioavailability (F)): 20.9%; Kp ([4]; po, po, 2.00 mg/kg, AUCINF liver/plasma, read-out: amount of exposure in liver relative to that in plasma): ~1.5; Kp ([4]; po, po, 2.00 mg/kg, Cmax liver/plasma, read-out: blood-drug concentration in liver relative to that in plasma): ~0.5; AUC(0-inf) ([4]; iv, 1.00 mg/kg, plasma): 2.15 µg·h/mL; Cmax ([4]; iv, 1.00 mg/kg, plasma): 2.47 µg/mL; AUC(0-inf) ([4]; po, 2.00 mg/kg, liver): 1.49 µg·h/mL; Cmax ([4]; po, 2.00 mg/kg, liver): 0.547 µg/mL; AUC(0-inf) ([4]; po, 2.00 mg/kg, plasma): 0.897 µg·h/mL; Cmax ([4]; po, 2.00 mg/kg, plasma): 1.25 µg/mL |
